These results are taken from patent publication US20240208992A1, “MACROCYCLES AS CFTR MODULATORS” (Idorsia Pharmaceuticals Ltd, priority 2021, published 2024).

This test has as its target human F508del-CFTR (Homo sapiens, UniProt P13569, DEL508-508). The test can be described thus: F508del-CFTR cell surface expression (corrector activity), DiscoveRx ß-galactosidase complementation chemiluminescence assay in recombinant U2OS cell line.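 On all read-outs here: U2OS cells co-expressing ProLink-tagged F508del-CFTR and a membrane-anchored enzyme acceptor, where more surface CFTR restores β-galactosidase activity measured by chemiluminescence.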 To be noted: U2OS cells, 16h compound incubation; for EC50: EC50, F508del-CFTR cell surface expression, geomean of several measurements; for Emax: U2OS, in relation to the Emax of the corrector lumacaftor (=100%), arithmetic mean.

Molecules are shown by their SMILES.

Sequence of human F508del-CFTR (P13569 with tags, fused parts or gaps DEL508-508): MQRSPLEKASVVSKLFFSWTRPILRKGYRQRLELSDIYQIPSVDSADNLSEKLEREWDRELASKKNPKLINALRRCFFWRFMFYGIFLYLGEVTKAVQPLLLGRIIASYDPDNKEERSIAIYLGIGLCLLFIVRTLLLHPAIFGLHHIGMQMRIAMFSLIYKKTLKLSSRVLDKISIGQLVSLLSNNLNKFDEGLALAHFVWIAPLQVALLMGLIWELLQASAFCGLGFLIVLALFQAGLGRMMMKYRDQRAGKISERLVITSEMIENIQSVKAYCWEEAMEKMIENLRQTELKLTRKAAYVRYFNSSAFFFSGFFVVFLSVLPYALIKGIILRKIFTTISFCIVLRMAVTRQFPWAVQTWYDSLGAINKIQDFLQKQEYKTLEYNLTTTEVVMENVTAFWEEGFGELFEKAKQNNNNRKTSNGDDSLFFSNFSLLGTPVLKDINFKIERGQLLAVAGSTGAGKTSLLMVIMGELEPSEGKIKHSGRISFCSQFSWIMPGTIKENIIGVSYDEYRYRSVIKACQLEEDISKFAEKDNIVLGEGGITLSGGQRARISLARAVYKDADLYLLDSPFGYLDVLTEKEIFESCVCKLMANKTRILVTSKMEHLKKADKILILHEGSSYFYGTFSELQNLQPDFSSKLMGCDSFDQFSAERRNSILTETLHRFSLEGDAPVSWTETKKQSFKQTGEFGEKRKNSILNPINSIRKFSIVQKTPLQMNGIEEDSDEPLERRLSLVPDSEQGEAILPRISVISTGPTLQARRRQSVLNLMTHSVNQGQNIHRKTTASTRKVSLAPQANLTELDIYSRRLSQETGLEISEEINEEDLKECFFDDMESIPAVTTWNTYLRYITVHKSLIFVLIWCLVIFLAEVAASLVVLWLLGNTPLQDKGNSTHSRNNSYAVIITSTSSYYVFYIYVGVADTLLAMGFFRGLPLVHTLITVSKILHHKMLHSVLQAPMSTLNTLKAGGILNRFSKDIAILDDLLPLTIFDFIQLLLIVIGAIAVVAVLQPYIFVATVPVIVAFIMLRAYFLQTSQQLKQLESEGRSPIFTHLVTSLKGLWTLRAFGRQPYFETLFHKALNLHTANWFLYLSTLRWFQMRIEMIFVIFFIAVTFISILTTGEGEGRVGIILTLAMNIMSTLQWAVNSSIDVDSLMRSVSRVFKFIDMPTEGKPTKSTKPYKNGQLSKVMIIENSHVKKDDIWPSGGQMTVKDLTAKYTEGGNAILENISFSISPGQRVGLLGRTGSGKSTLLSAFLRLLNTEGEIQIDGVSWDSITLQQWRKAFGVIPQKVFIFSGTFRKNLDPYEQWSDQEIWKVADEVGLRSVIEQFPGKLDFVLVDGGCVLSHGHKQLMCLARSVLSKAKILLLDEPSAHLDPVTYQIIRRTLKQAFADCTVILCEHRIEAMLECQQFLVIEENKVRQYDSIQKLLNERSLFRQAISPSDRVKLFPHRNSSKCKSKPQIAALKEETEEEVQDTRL

As usually defined, the EC50 is the concentration at which the effect is half-maximal. As a reminder, the Emax is the greatest response seen or fitted, relative to the assay's reference. With `COCCc1ccc(-c2noc(C[C@@H]3C(=O)N[C@H](Cc4ccccc4)COc4ccnc(OC)c4C(=O)N[C@H](C(=O)NCCc4noc(C5CC5)n4)CC(=O)N(C)[C@@H](CC(C)C)C(=O)N3C)n2)cc1` [Example 867, (3R,6R,9S,13S)-3-benzyl-N-(2-(5-cyclopropyl-1,2,4-oxadiazol-3-yl)ethyl)-9-isobutyl-16-methoxy-6-((3-(4-(2-methoxyethyl)phenyl)-1,2,4-oxadiazol-5-yl)methyl)-7,10-dimethyl-5,8,11,15-tetraoxo-2,3,4,5,6,7,8,9,10,11,12,13,14,15-tetradecahydropyrido[3,4-p][1]oxa[4,7,10,14]tetraazacycloheptadecine-13-carboxamide], the EC50 worked out at 31 nM and the Emax stood at 413%.

Take `COCCc1ccc(-c2noc(C[C@@H]3C(=O)N[C@H](Cc4ccccc4)COc4ccnc(OC)c4C(=O)N[C@H](C(=O)NCCc4cc(OC)no4)CC(=O)N(C)[C@@H](CC(C)C)C(=O)N3C)n2)cc1` [Example 868, (3R,6R,9S,13S)-3-benzyl-9-isobutyl-16-methoxy-6-((3-(4-(2-methoxyethyl)phenyl)-1,2,4-oxadiazol-5-yl)methyl)-N-(2-(3-methoxyisoxazol-5-yl)ethyl)-7,10-dimethyl-5,8,11,15-tetraoxo-2,3,4,5,6,7,8,9,10,11,12,13,14,15-tetradecahydropyrido[3,4-p][1]oxa[4,7,10,14]tetraazacycloheptadecine-13-carboxamide]: the EC50 is 18 nM and the Emax amounted to 397%.

Regarding `COc1cc2c(c(OC)n1)C(=O)N[C@H](C(=O)NCCc1cc(C)no1)CC(=O)N(C)[C@@H](CC(C)C)C(=O)N1CCCC[C@@H]1C(=O)N[C@H](Cc1ccccc1)CO2` [Example 869, (7S,11S,17aR,20R)-20-benzyl-11-isobutyl-2,4-dimethoxy-10-methyl-N-(2-(3-methylisoxazol-5-yl)ethyl)-5,9,12,18-tetraoxo-5,6,7,8,9,10,11,12,15,16,17,17a,18,19,20,21-hexadecahydro-14H-dipyrido[2,1-f:3′,4′-p][1]oxa[4,7,10,14]tetraazacycloheptadecine-7-carboxamide], the EC50 was 358 nM and the Emax was found to be 305%.

Consider `COc1cc2c(c(OC)n1)C(=O)N[C@H](C(=O)NCCc1cc(C3CC3)no1)CC(=O)N(C)[C@@H](CC(C)C)C(=O)N1CCCC[C@@H]1C(=O)N[C@H](Cc1ccccc1)CO2` [Example 870, (7S,11S,17aR,20R)-20-benzyl-N-(2-(3-cyclopropylisoxazol-5-yl)ethyl)-11-isobutyl-2,4-dimethoxy-10-methyl-5,9,12,18-tetraoxo-5,6,7,8,9,10,11,12,15,16,17,17a,18,19,20,21-hexadecahydro-14H-dipyrido[2,1-f:3′,4′-p][1]oxa[4,7,10,14]tetraazacycloheptadecine-7-carboxamide], for which the EC50 came to 201 nM and the Emax was determined as 316%.

For `COCCc1ccc(-c2noc(C[C@@H]3C(=O)N[C@H](Cc4ccccc4)COc4ccnc(OC)c4C(=O)N[C@H](C(=O)NCCn4ncc(C5CC5)n4)CC(=O)N(C)[C@@H](CC(C)C)C(=O)N3C)n2)cc1` [Example 871, (3R,6R,9S,13S)-3-benzyl-N-(2-(4-cyclopropyl-2H-1,2,3-triazol-2-yl)ethyl)-9-isobutyl-16-methoxy-6-((3-(4-(2-methoxyethyl)phenyl)-1,2,4-oxadiazol-5-yl)methyl)-7,10-dimethyl-5,8,11,15-tetraoxo-2,3,4,5,6,7,8,9,10,11,12,13,14,15-tetradecahydropyrido[3,4-p][1]oxa[4,7,10,14]tetraazacycloheptadecine-13-carboxamide], the EC50 is 32 nM and the Emax was 378%.

Consider `COc1noc(CCNC(=O)[C@@H]2CC(=O)N(C)[C@@H](CC(C)C)C(=O)N(C)C3(CC3)C(=O)N[C@H](Cc3ccccc3)COc3cnc4ccccc4c3C(=O)N2)n1` [Example 872, (3′S,7′S,13′R)-13′-benzyl-7′-isobutyl-N-(2-(3-methoxy-1,2,4-oxadiazol-5-yl)ethyl)-6′,9′-dimethyl-1′,5′,8′,11′-tetraoxo-2′,3′,4′,5′,6′,7′,8′,9′,11′,12′,13′,14′-dodecahydro-1′H-spiro[cyclopropane-1,10′-[1]oxa[4,7,10,14]tetraazacycloheptadecino[17,16-c]quinoline]-3′-carboxamide], for which the EC50 stood at 535 nM and the Emax stood at 318%.

Take `COc1cccc(CCNC(=O)[C@@H]2CC(=O)N(C)[C@@H](CC(C)C)C(=O)N(C)[C@H](CC(C)(C)C)C(=O)N[C@H](Cc3ccccc3)COc3cc(C)nc(OC)c3C(=O)N2)c1` [Example 873, (3R,6R,9S,13S)-3-benzyl-9-isobutyl-16-methoxy-N-(3-methoxyphenethyl)-7,10,18-trimethyl-6-neopentyl-5,8,11,15-tetraoxo-2,3,4,5,6,7,8,9,10,11,12,13,14,15-tetradecahydropyrido[3,4-p][1]oxa[4,7,10,14]tetraazacycloheptadecine-13-carboxamide]: the EC50 came to 41 nM and the Emax was determined as 336%.

On to `COc1nc(C)cc2c1C(=O)N[C@H](C(=O)NCCc1cc(C)no1)CC(=O)N(C)[C@@H](CC(C)C)C(=O)N(C)[C@H](CCc1ccccc1)C(=O)N[C@H](Cc1ccccc1)CO2` [Example 874, (3R,6R,9S,13S)-3-benzyl-9-isobutyl-16-methoxy-7,10,18-trimethyl-N-(2-(3-methylisoxazol-5-yl)ethyl)-5,8,11,15-tetraoxo-6-phenethyl-2,3,4,5,6,7,8,9,10,11,12,13,14,15-tetradecahydropyrido[3,4-p][1]oxa[4,7,10,14]tetraazacycloheptadecine-13-carboxamide], for which the 50% effective concentration (EC50) is 66 nM and the Emax came out at 332%.

For `COc1cccc(CCNC(=O)[C@@H]2CC(=O)N(C)[C@@H](CC(C)C)C(=O)N(C)[C@H](CCc3ccccc3)C(=O)N[C@H](Cc3ccccc3)COc3cc(C)nc(OC)c3C(=O)N2)c1` [Example 875, (3R,6R,9S,13S)-3-benzyl-9-isobutyl-16-methoxy-N-(3-methoxyphenethyl)-7,10,18-trimethyl-5,8,11,15-tetraoxo-6-phenethyl-2,3,4,5,6,7,8,9,10,11,12,13,14,15-tetradecahydropyrido[3,4-p][1]oxa[4,7,10,14]tetraazacycloheptadecine-13-carboxamide], the half-maximal effective concentration (EC50) came to 21 nM and the Emax turned out to be 333%.

In the case of `COc1nc(C)cc2c1C(=O)N[C@H](C(=O)NCCc1cc(C)no1)CC(=O)N(C)[C@@H](CC(C)C)C(=O)N(C)[C@H](CC(C)(C)C)C(=O)N[C@H](Cc1ccccc1)CO2` [Example 876, (3R,6R,9S,13S)-3-benzyl-9-isobutyl-16-methoxy-7,10,18-trimethyl-N-(2-(3-methylisoxazol-5-yl)ethyl)-6-neopentyl-5,8,11,15-tetraoxo-2,3,4,5,6,7,8,9,10,11,12,13,14,15-tetradecahydropyrido[3,4-p][1]oxa[4,7,10,14]tetraazacycloheptadecine-13-carboxamide], the EC50 stood at 113 nM and the Emax came out at 317%.
